Laboratory results: patent publication US20070208166A1, “Tao Kinase Modulators And Method Of Use” (Exelixis, Inc., priority 2003, published 2007)

Legend:
Format in all cases: biochemical
[1] = target: T1, KIAA 1361 (baculovirus expressed human KIAA 1361 kinase domain 2-322) (Homo sapiens, UniProt Q7L7X3); assay: KIAA 1361 Luciferase-Coupled Chemiluminescent Kinase assay (LCCA); conditions: 2 μM ATP, 10 μM MBP, 12 nM KIAA 1361, 2 hours; read-out: KIAA1361 inhibition IC50
T1 construct: human KIAA 1361 kinase domain 2-322; made in house
T1 sequence (Q7L7X3 2-322): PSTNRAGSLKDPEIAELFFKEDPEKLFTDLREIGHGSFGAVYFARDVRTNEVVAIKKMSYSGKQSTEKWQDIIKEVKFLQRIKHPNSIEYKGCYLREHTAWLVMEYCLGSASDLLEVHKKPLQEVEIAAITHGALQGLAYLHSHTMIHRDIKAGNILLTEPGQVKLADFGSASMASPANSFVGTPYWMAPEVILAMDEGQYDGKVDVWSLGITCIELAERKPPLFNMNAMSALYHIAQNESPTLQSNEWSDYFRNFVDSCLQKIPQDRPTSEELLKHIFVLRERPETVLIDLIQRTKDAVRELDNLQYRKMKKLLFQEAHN
Protocol: (§1) Kinase activity and compound inhibition are investigated using one or more of the three assay formats described below. The ATP concentrations for each assay are selected to be close to the Michaelis-Menten constant (KM) for each individual kinase. Dose-response experiments are performed at 10 different inhibitor concentrations in a 384-well plate format. The data are fitted to four-parameter equation (2) below; where Y is the observed signal, X is the inhibitor concentration, Min is the background signal in the absence of enzyme (0% enzyme activity), Max is the signal in the absence of inhibitor (100% enzyme activity), IC50 is the inhibitor concentration at 50% enzyme inhibition and H represents the empirical Hill's slope to measure the cooperativity. Typically H is close to unity. Y=Min+(Max−Min)/(1+(X/IC50)ˆH) Equation (2) KIAA 1361 Assay: […]
(§2) KIAA 1361 biochemical activity was assessed using a Luciferase-Coupled Chemiluminescent Kinase assay (LCCA) format. Kinase activity was measured as the percent ATP remaining following the kinase reaction. Remaining ATP was detected by luciferase-luciferin-coupled chemiluminescence. Specifically, the reaction was initiated by mixing test compounds, 2 μM ATP, 10 μM MBP and 12 nM KIAA 1361 (baculovirus expressed human KIAA 1361 kinase domain 2-322) in a 20 uL assay buffer (20 mM Tris-HCL pH7.5, 10 mM MgCl2, 0.02% Triton X-100, 100 mM DTT, 2 mM MnCl2). The mixture is incubated at ambient temperature for 2 hours after which 20 uL luciferase-luciferin mix is added and the chemiluminescent signal read using a Wallac Victor^2 reader. The luciferase-luciferin mix consists of 50 mM HEPES, pH 7.8, 8.5 ug/mL oxalic acid (pH 7.8), 5 (or 50) mM DTT, 0.4% Triton X-100, 0.25 mg/mL coenzyme A, 63 uM AMP, 28 ug/mL luciferin and 40,000 units of light/mL luciferase.

JIK = target: T2, JIK (Homo sapiens, UniProt Q9H2K8); assay: JIK Luciferase-Coupled Chemiluminescent Kinase assay (LCCA); conditions: 2 μM ATP, 10 μM MBP, 6 nM JIK, 2 hours; read-out: JIK inhibition IC50
T2 construct: 6 nM JIK (baculovirus expressed human KIAA 1361 kinase domain2-318); made in house
T2 sequence (Q9H2K8 2-318): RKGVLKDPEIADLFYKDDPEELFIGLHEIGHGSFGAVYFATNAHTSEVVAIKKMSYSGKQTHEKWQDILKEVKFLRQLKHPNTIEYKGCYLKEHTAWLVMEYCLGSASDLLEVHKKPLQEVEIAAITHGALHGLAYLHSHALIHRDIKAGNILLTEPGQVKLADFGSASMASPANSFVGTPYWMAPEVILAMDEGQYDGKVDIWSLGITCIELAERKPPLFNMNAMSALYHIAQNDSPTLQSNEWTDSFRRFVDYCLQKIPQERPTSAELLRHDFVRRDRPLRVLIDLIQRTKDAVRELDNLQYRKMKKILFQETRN
Protocol: as §1
as §2, with “JIK biochemical” for “KIAA 1361 biochemical”, “and 6” for “and 12”, “nM JIK” for “nM KIAA 1361”, “kinase domain2-318)” for “kinase domain 2-322)”

TAO = target: T3, TAO (Homo sapiens, UniProt Q9UL54); assay: TAO Luciferase-Coupled Chemiluminescent Kinase assay (LCCA); conditions: 2 μM ATP, 10 μM MBP, 12 nM TAO, 2 hours; read-out: TAO inhibition IC50
T3 sequence (Q9UL54 1-1235): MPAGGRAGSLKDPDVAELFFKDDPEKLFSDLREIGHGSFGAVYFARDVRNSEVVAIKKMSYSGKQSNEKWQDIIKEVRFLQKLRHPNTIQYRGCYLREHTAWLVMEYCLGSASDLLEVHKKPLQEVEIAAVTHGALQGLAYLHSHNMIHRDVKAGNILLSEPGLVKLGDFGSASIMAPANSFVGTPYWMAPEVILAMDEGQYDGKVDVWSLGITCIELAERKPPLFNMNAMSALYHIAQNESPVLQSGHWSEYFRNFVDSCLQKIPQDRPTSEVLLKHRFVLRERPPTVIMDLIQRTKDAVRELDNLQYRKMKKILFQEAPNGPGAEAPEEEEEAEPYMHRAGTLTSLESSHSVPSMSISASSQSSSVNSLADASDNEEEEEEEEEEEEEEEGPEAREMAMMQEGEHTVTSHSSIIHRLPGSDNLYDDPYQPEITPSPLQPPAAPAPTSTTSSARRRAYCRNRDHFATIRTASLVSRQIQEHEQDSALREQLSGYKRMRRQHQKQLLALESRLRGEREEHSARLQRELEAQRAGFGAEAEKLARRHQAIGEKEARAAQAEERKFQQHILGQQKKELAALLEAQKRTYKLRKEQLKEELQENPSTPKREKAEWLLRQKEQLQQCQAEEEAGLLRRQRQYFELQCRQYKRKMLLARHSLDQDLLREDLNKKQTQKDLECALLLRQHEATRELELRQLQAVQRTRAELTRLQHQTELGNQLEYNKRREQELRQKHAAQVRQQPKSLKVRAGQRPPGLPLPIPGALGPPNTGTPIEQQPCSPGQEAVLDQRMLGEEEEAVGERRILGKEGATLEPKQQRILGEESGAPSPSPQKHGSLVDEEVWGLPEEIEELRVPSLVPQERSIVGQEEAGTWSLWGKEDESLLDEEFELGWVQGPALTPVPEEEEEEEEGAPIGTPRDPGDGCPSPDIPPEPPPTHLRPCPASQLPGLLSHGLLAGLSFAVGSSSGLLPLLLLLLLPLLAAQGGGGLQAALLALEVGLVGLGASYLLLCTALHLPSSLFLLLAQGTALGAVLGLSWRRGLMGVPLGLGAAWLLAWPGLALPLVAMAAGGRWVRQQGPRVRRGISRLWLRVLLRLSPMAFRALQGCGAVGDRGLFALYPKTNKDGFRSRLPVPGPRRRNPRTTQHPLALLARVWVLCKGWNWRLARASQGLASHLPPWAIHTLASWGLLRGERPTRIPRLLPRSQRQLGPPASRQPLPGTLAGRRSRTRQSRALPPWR
Protocol: as §1
as §2, with “TAO biochemical” for “KIAA 1361 biochemical”, “nM TAO” for “nM KIAA 1361”, “mM […],” for “mM HEPES,”, “[…]” for “0.25 mg/mL”

Compound | IC50 [1] | IC50 (JIK) | IC50 (TAO)
CCCCOc1ccc(C(=O)N[C@@H](Cc2c[nH]c3ccccc23)C(=O)NC2CCCc3ccccc32)cc1 (stereo partly drawn) [Entry 14, Nalpha-{[4-(butyloxy)phenyl]carbonyl}-N-(1,2,3,4-tetrahydronaphthalen-1-yl)tryptophanamide] | 50 to 500 nM | 50 to 500 nM | 500 to 5000 nM
COc1ccc(/C=C/C(=O)N2Cc3[nH]cnc3CC2C(=O)NCCc2cccc(Cl)c2)cc1OC (stereo not drawn) [Entry 15, 5-{(2E)-3-[3,4-bis(methyloxy)phenyl]prop-2-enoyl}-N-[2-(3-chlorophenyl)ethyl]-4,5,6,7-tetrahydro-3H-imidazol[4,5-c]pyridine-6-carboxamide] | 50 to 500 nM | < 50 nM | 500 to 5000 nM
O=C(NC(C(=O)NC1CCCc2ccccc21)c1cccnc1)c1ccc(-n2cncn2)cc1 (stereo not drawn) [Entry 16, N-[2-oxo-1-pyridin-3-yl-2-(1,2,3,4-tetrahydronaphthalen-1-ylamino)ethyl]-4-(1H-1,2,4-triazol-1-yl)benzamide] | 50 to 500 nM | 50 to 500 nM | 50 to 500 nM
COc1ccc(/C=C/C(=O)N[C@@H](Cc2c[nH]c3ccccc23)C(=O)NC2CCCc3ccccc32)cc1OC (stereo partly drawn) [Entry 17, Nalpha-{(2E)-3-[3,4-bis(methyloxy)phenyl]prop-2-enoyl}-N-(1,2,3,4-tetrahydronaphthalen-1-yl)tryptophanamide] | 50 to 500 nM | 50 to 500 nM | 500 to 5000 nM
CCCCOc1ccc(C(=O)NC(C)C(=O)NC2CCc3ccccc3C2)cc1 (stereo not drawn) [Entry 18, 4-(butyloxy)-N-[1-methyl-2-oxo-2-(1,2,3,4-tetrahydronaphthalen-2-ylamino)ethyl]benzamide] | 50 to 500 nM | 50 to 500 nM | 500 to 5000 nM
CC(NC(=O)c1ccc(OCc2ccccc2)cc1)C(=O)NC1CCc2ccccc2C1 (stereo not drawn) [Entry 19, N-[1-methyl-2-oxo-2-(1,2,3,4-tetrahydronaphthalen-2-ylamino)ethyl]-4-[(phenylmethyl)oxy]benzamide] | 50 to 500 nM | 50 to 500 nM | 500 to 5000 nM
Cc1cc(C(=O)NCC(=O)NC2CCCc3ccccc32)cc(C)c1OCc1ccccc1 (stereo not drawn) [Entry 20, 3,5-dimethyl-N-{2-oxo-2-(1,2,3,4-tetrahydronaphthalen-1-ylamino)ethyl]-4-[(phenylmethyl)oxy]benzamide] | 50 to 500 nM | 50 to 500 nM | 500 to 5000 nM
CCCCOc1ccc(NC(=O)N[C@@H](COCc2ccccc2)C(=O)NCCc2ccccc2)cc1 [Entry 21, N˜2˜-({[4-(butyloxy)phenyl]amino}carbonyl)-N-(2-phenylethyl)-O-(phenylmethyl)serinamide] | 50 to 500 nM | 50 to 500 nM | > 5000 nM
CCCCc1ccc(NC(=O)N2CCC[C@H]2C(=O)NCc2ccc(Cl)c(Cl)c2)cc1 [Entry 22, (2S)-N˜-1˜-(4-butylphenyl)-N˜2˜-[(3,4-dichlorophenyl)methyl]pyrrolidine-1,2-dicarboxamide] | 50 to 500 nM | 50 to 500 nM | 500 to 5000 nM
COc1ccc2nc(NC(=O)CCCNC(=O)Cn3cnc4sc5c(c4c3=O)CCCC5)sc2c1 [Entry 23, N-[6-(methyloxy)-1,3-benzothiazol-2-yl]-4-{[(4-oxo-5,6,7,8-tetrahydro[1]benzothieno[2,3-d]pyrimidin-3(4H)-yl)acetyl]amino}butanamide] | 50 to 500 nM | 50 to 500 nM | 500 to 5000 nM
CC(C)c1ccc(NC(=O)N2CCC[C@H]2C(=O)NCc2ccc(Cl)c(Cl)c2)cc1 [Entry 24, (2S)-N˜2˜-[(3,4-dichlorophenyl)methyl]-N˜1˜-[4-(1-methylethyl)phenyl]pyrrolidine-1,2-dicarboxamide] | 50 to 500 nM | 50 to 500 nM | 500 to 5000 nM
O=C(CNC(=O)COc1ccc(Br)cc1)NCc1ccc(Cl)c(Cl)c1 [Entry 25, N˜2˜-{[(4-bromophenyl)oxy]acetyl}-N-[(3,4-dichlorophenyl)methyl]glycinamide] | 50 to 500 nM | 50 to 500 nM | 500 to 5000 nM
